Patent publication US4510085A, “Antihypertensive tetrapeptide amides” (G.D. Searle & Co., priority 1984, dated 1985)
Non-standard residues stand in square brackets, D forms with d. Residues, ends and D or L forms follow the SMILES beside them. No end group written: not given here. *: point of attachment. NH(2-adamantyl) = C1C2CC3CC1CC(C2)C3N*; 2Nal = N[C@@H](Cc1ccc2ccccc2c1)C(=O)O; Sta = CC(C)C[C@H](N)[C@@H](O)CC(=O)O; NEtPhe = CCN[C@@H](Cc1ccccc1)C(=O)O; Isovaleryl = CC(C)CC(=O)*

Experiments:
human renin = target: T1, human renin (Homo sapiens, UniProt P00797); assay: Inhibition of Human Renin; format: biochemical; settings: angiotensin I formed by radioimmunoassay; considered active if inhibition was greater than 20%
T1 construct: tissue World Health Organization International Laboratory for Biological Standards (National Institute for Biological Standards and Control, London, England); host or cells: human kidney
T1 sequence (P00797 67-406): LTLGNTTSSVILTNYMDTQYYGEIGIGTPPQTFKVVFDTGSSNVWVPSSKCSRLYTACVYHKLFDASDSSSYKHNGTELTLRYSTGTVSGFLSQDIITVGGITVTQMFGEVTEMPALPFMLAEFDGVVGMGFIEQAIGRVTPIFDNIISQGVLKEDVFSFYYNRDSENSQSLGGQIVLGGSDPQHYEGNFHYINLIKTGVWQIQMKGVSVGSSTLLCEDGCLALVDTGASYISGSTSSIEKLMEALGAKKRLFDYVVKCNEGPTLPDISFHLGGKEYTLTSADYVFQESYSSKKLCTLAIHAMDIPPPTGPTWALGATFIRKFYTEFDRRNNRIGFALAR
Method: The renin inhibition activity of the compounds of this invention illustrated in the examples was tested by the following method.
International reference standard human renin, isolated from kidneys, was obtained from the World Health Organization International Laboratory for Biological Standards (National Institute for Biological Standards and Control, London, England). Renin activity is defined in "Goldblatt units" (GU), the quantity that, when injected directly into the blood stream of an unanesthetized dog, raises the direct mean femoral artery blood pressure by 30 mm Hg in about two minutes. E. Haas, L. Lewis, P. Scipione, and T. J. Koshy, Hypertension, 1, 112-117 (1979). Human angiotensinogen was used as an unisolated component of human blood plasma. The enzyme inhibition assay, see K. Poulsen, J. Burton, and E. Haber, Biochemistry, 12, 3877-3882 (1973), involved a two-hour incubation at 37° C. of the following final concentrations of reagents (0.25 ml total volume): 0.1 mGU/ml human renin; 0.05 ml human plasma; 6 mM disodium EDTA; 2.4 mM phenylmethylsulfonyl fluoride and 1.5 mM 8-hydroxyquinoline (angiotensinase inhibitors); 0.4 mg/ml bovine serum albumin; and 0.024 neomycin sulfate in 100 mM Tris-acetate buffer (pH 7.5). The enzymatic reaction was terminated by boiling the mixture for ten minutes. The quantity of angiotensin I formed was determined by radioimmunoassay, using the general method used in the angiotensin I radioimmunoassay kit of New England Nuclear.

Opiate receptor = assay: Opiate Receptor Binding; settings: rat brain membrane homogenates, tritium-labeled naloxone
Method: Opiate receptor binding of the compounds of this invention illustrated in the examples was tested by the following method.
A 2 ml portion of the homogenate is incubated at 25° with the test compound (10 mcM) and tritium-labeled naloxone (1.0 nM). After sixty minutes, samples were rapidly cooled on ice, collected over glass-fiber filters, washed with cold buffer, and solubilized by incubation with 1.0 ml of NCS tissue solubilizer. Samples were then prepared for counting in a liquid scintillation counter. Specific binding was calculated, with results expressed as percent inhibition at the test dose.

[1] = test system: sodium depleted Rhesus monkeys; assay: Rhesus Monkey Blood Pressure Test; format: in vivo
Method: Rhesus monkeys were sodium depleted by means of a fruit diet in combination with intramuscular furosemide injections (0.5 mg per kg of body weight) given twice daily for four days. This procedure causes blood pressure to become dependent on plasma renin activity. J. Burton, R. J. Cody, Jr., A. J. Herd, and E. Haber, Proc. Natl. Acad. Sci. U. S. A., 77, 5476-5479 (1980). On the fifth day the animals were anesthetized with ketamine (100 mg administered intravenously). The femoral artery was cannulated for blood pressure measurement and a percutaneous venous cannula was inserted for test compound administration. The animals were allowed to recover from anesthesia and were restrained in a transparent plastic chair. […]

[2] = test system: renal-ligated hypertensive rat; assay: Renal-ligated Hypertensive Rat Assay; format: in vivo; settings: renal-ligated rats
Method: Male Sprague Dawley rats aged 11 to 15 weeks old were used in this test. […] Test compounds were administered intra-arterially at a dose of 10 mg per kg of body weight, and blood pressure changes were monitored directly at 5, 10, and 15 minutes after injection.

Male Charles River mice = assay: Hot-plate Assay; format: in vivo, mouse; settings: subcutaneous, dose active if 50% of the animals showed analgesia
Method: (§1) The in vivo analgesic activity of the compounds of this invention illustrated in the examples was tested using the following hot-plate and writhing assays. Tyrosyl-N-(phenylpropyl)-D-alaninamide, a known analog of enkephalin, is active in these assays.
Male Charles River mice (COBS CD-1(ICR)BR) weighing 20 to 30 grams were used in this assay. Two groups of fourteen mice were placed individually in a restraining cylinder placed on a hot plate kept at 55° (±0.5°). The reaction time for each mouse to lick a foot or jump was measured three times at 20 minute intervals. Mice not responding within fifteen seconds were discarded. Twenty minutes after the last reaction experiment ten mice were given a dose of the test compound and ten were given 0.9% saline (each solution containing approximately 0.09 ml of a 1:1 mixture by volume of propylene glycol and polysorbate 80) subcutaneously. The response times of the animals were measured as before at 30, 60, 90, and 120 minute intervals after this injection. Mice not responding within 30 seconds were removed from the hot plate and given a response time of 30 seconds. […] The ED50 of each active test compound was then calculated. See N. B. Eddy, D. Leimbach, J. Pharmacol. and Exp. Therap., 107, 385-393 (1953).

[3] = test system: Male Charles River albino mice; assay: PBQ-Writhing Assay; format: in vivo, mouse; settings: analgesia if writhes equal to or less than one-half the control median
Method: as §1
Male Charles River albino mice (CD-1(ICR)BR) weighing 20 to 30 grams were used in this assay. Thirty minutes after subcutaneous or intragastric administration (0.1 ml per 10 g of body weight) or fifteen minutes after intracerebroventricular administration (5 mcl total volume), a 0.025% solution of phenylbenzoquinone (PBQ) was injected intraperitoneally (0.1 ml per 10 g of body weight). Five minutes later each mouse was placed in a glass beaker and the number of writhes occurring in the next ten minutes was counted. (A writhe consists of dorsoflexion of the back, extension of the hindlimbs, and strong contraction of the abdominal musculature.) The test compound was considered to have produced analgesia in a mouse if the number of writhes elicited by PBQ was equal to or less than one-half the median number of writhes recorded for the saline-treated control group of mice that day. Results were expressed as the number of mice out of a possible ten in which the test compound produced analgesia. […]

Compound: CSCC[C@@H](NC(=O)[C@@H](N)Cc1ccc2ccccc2c1)C(=O)NCC(=O)N[C@@H](Cc1ccccc1)C(=O)NC1C2CC3CC(C2)CC1C3.Cl (stereo partly drawn) [Example 29, 3-(2-naphthalenyl)-L-alanyl-D-methionylglycyl-N-(2-adamantyl)-L-phenylalaninamide hydrochloride] (H-[2Nal][dM]GF-{NH(2-adamantyl)})
- renin inhibition activity (human renin): possess renin inhibition activity
- opiate receptor binding relative to prior art compounds of U.S. Pat. No. 4,273,704 (Opiate receptor): significantly lower opiate receptor binding

Compound: C[C@H](CS)C(=O)N1CCC[C@H]1C(=O)O [captopril]
- mean blood pressure ([1]; 0.1 mg per kg): significantly lowered

Compound: CC(C)CC(=O)N[C@H](C(=O)N[C@H](C(=O)N[C@@H](CC(C)C)[C@@H](O)CC(=O)N[C@@H](C)C(=O)N[C@@H](CC(C)C)[C@@H](O)CC(=O)O)C(C)C)C(C)C [Pepstatin] (Isovaleryl-VV[Sta]A[Sta]-OH)
- renin inhibition activity (human renin): active
- plasma renin activity [2]: significantly reduced
- mean arterial blood pressure ([2]; intra-arterial administration, significance P≤0.05): significantly reduced

Compound: PHPFHFFVYK [RIP, prolylhistidylprolylphenylalanylhistidylphenylalanylphenylalanylvalyltyros yllysine]
- mean blood pressure ([1]; 1.0 mg per kg): significantly lowered

Compound: CCN[C@@H](Cc1ccccc1)C(=O)N[C@H](CCSC)C(=O)NCC(=O)N[C@@H](Cc1ccccc1)C(=O)NC1C2CC3CC(C2)CC1C3.Cl (stereo partly drawn) [Example 15, N^α -ethyl-L-phenylalanyl-D-methionylglycyl-N-(2-adamantyl)-L-phenylalaninamide hydrochloride] (H-[NEtPhe][dM]GF-{NH(2-adamantyl)})
- renin inhibition activity (human renin): possess renin inhibition activity
- opiate receptor binding relative to prior art compounds of U.S. Pat. No. 4,273,704 (Opiate receptor): significantly lower opiate receptor binding

Compound: C[C@@H](NC(=O)[C@@H](N)Cc1ccc(O)cc1)C(=O)NCCCc1ccccc1 [Tyrosyl-N-(phenylpropyl)-D-alaninamide]
- analgesic activity, hot-plate (Male Charles River mice): active
- analgesic activity, PBQ writhing [3]: active
